Assays:
Meth A sarcoma = conditions: 100 mg/kg, p.o., every other day, 12 day, CH3 mice (10); cited from earlier work
B16 melanoma = conditions: 100 mg/kg, p.o., every other day, 12 day, CH3 mice (10); cited from earlier work
[1] = tested on: MDA-MB-435 breast cancer cells; conditions: oral, 75 mg/kg/day for 29 days, SCID mice (11); cited from earlier work
[2] = tested on: MCF-7 breast cancer cells; conditions: reported by Seegers et al. (8); cited from earlier work
[3] = rats, oral (16); cited from earlier work
[4] = tested on: MCF-7 breast cancer cells; test: Irreversible inhibition of cell growth, Stage 1 and Stage 2 (Coulter cell counter); type: cell-based
Experimental: MCF-7 breast cancer cells were seeded into multi-well culture plates at a density of 10^5 cells/well. Cells were allowed to attach and grown until about 30% confluent when they were treated as follows:
Cells were grown for 6 days in growth medium containing the above drugs with changes of medium/drug every 3 days. At the end of this period cell numbers were counted using a Coulter cell counter.
After treatment of cells for a 6-day period with the above drugs cells were re-seeded at a density of 10^4 Cells/well. No further treatments were added. Cells were allowed to continue to grow for a further 6 days in the presence of growth medium. At the end of this period cell numbers were again counted.
Stages 1 and 2 described above were repeated using Control—no treatment, EMATE 20 μM and EMATE 5 μM.
MCF-7 breast cancer cells were seeded into multi-well culture plates at a density of 10^5 cells/well. Cells were allowed to attach and grown until about 30% confluent when they were treated as follows: • Control—no treatment • Compound of Interest (COI) 20 μM
Cells were grown for 6 days in growth medium containing the COI with changes of medium/COI every 3 days. At the end of this period cell numbers were counted using a Coulter cell counter.
After treatment of cells for a 6-day period with the COI cells were re-seeded at a density of 10^4 cells/well. No further treatments were added. Cells were allowed to continue to grow for a further 6 days in the presence of growth medium. At the end of this period cell numbers were again counted.

[5] = tested on: MCF-7 breast cancer cells; test: Cell morphology by photomicrographs; type: cell-based; conditions: 10 μM
Experimental: MCF-7 (ER+) and MDA-MB-231 (ER−) breast cancer cells were obtained from the American Type Culture Collection (Rockville, Md.). Cells were routinely cultured in 25 cm^2 culture flasks in Eagle's minimum essential medium (EMEM) with Hepes buffer (20 mM). This medium was supplemented with L-glutamine (2 mM), sodium hydrogen carbonate (10 mM), 1% non-essential amino acids and 5% (v/v) foetal calf serum (FCS). Before adding test compounds, cells were washed with phosphate-buffered saline (PBS) and treatments added in phenol-red free medium containing 2% stripped FCS and supplements. The effects of 2-MeOE1 or 2-MeOEMATE on the growth of MCF-7 cells was assessed using a Cell Titer 96 cell proliferation assay (Promega, Southampton, Hants, UK) according to the manufacturers' instructions. For this, cells (5000 per well) were cultured in medium containing phenol-red and 10% FCS and were exposed to a drug for 4 days before the assay was performed. For MDA-MB-231 cells, cell numbers were determined using a Coulter counter.
Photomicrographs of control and treated cells were taken under normal conditions of light and exposure using an Olympus SL35 Type 12 camera under an Olympus CK2 microscope (×100 magnification).

Structure (SMILES) | reduction of tumour growth (Meth A sarcoma) [%] | reduction of tumour growth (B16 melanoma) [%] | reduction of tumour volumes compared with untreated controls [1] [%] | toxic side effects [1] | concentrations cytotoxic to MCF-7 breast cancer cells [2] [μm] | oral uterotrophic activity relative to estradiol [3] [times] | cell number, Stage 1 ([4]; 5 μM) | cell number, Stage 2 ([4]; 5 μM) | cell number, Stage 1 ([4]; 20 μM) | cell number, Stage 2 ([4]; 20 μM) | effect on cell morphology [5]
COc1cc2c(cc1O)CC[C@@H]1[C@@H]2CC[C@]2(C)[C@@H](O)CC[C@@H]12 [2-MeOE2, 2-methoxyoestradiol] | 57 | 83 | 60 | No toxic side effects were detected | ≥ 1 | – | – | – | – | – | –
CC12CCC3c4ccc(OS(N)(=O)=O)cc4CCC3C1CCC2=O (stereo not drawn) [EMATE, oestrone-3-O-sulphamate] | – | – | – | – | – | 100 | EMATE 5 μM = 139% control | EMATE 5 μM = 98% control | EMATE 20 μM = 119% control | EMATE 20 μM = 103% control | did not affect cell morphology
C[C@]12CC[C@@H]3c4ccc(O)cc4CC[C@H]3[C@@H]1CCC2=O [Oestrone] | – | – | – | – | – | – | – | – | – | – | did not affect cell morphology

— patent publication US7078395B1, “Methods for treating or preventing cancer by preventing, inhibiting or arresting cell cycling” (priority 1999, dated 2006)
